Laboratory results from article PMC11002876, “KcsA-Kv1.x chimeras with complete ligand-binding sites provide improved predictivity for screening selective Kv1.x blockers” (The Journal of Biological Chemistry, 2024).
Where a SMILES comes first, the peptide text is derived from it.

Experiments:
[1] = test system: human Kv1.3 channel (hKv1.3); test: Whole-cell patch-clamp of phage-displayed toxins, hKv1.3 in human lymphocytes; assay type: cell-based; details: for estimated relative potency in phage-displayed form: from phage concentrations required to reach 50% block of hKv1.3 current, Vm24 = 1, Fig. 9B; for inhibition of Kv1.3 current in phage-displayed form, in words: phage-displayed peptide, DDDKTX1- and KTX1-phage at 3.6 × 10^13 particle/ml
Experimental: Human Kv1.3 currents were recorded from activated peripheral blood mononuclear cells (see below) 3 to 4 days after activation. Heparinized human peripheral venous blood was obtained from healthy volunteers. Mononuclear cells were separated through Histopaque-1077 density gradient centrifugation. Collected cells were washed twice with Ca^2+- and Mg^2+-free Hanks’ solution containing 25 mM Hepes buffer, pH 7.4. Cells were cultured for 3 to 4 days in 24-well culture plates in a 5% CO2 incubator at 37 °C, in RPMI 1640 medium supplemented with 10% fetal calf serum (Sigma-Aldrich), 100 μg/ml penicillin, 100 μg/ml streptomycin, and 2 mM L-glutamine (density, 0.5 × 10^6 cells per ml). Phytohemagglutinin A (Sigma-Aldrich) was added to the medium at 10 μg/ml to amplify the Kv1.3 expression. Cells were washed gently twice with 2 ml of ECS for the patch-clamp experiments.
Conventional whole-cell patch-clamp electrophysiology was used to record ionic currents. Micropipettes were pulled from GC150F-7.5 borosilicate capillaries (Harvard Apparatus) with tip diameters between 0.5 and 1 μm resulting in a tip resistance of 2 to 8 MΩ in the extracellular (bath) solution. All measurements were carried out by using Axopatch 200B amplifier connected to a personal computer using Axon Digidata 1550A data acquisition hardware and Pclamp10.7 software (https://support.moleculardevices.com/s/article/Axon-pCLAMP-10-Electrophysiology-Data-Acquisition-Analysis-Software-Download-Page). The holding potential was −120 mV. Records were discarded when leak at the holding potential was >10% of peak current at the test potential. Experiments were performed at room temperature (20–24 °C). Before analysis, whole-cell current traces were corrected for ohmic leakage and digitally filtered with a three-point boxcar smoothing filter.
Solutions: all salts and components of the solutions were purchased from Sigma Aldrich. The extracellular (bath) solution (ECS) contained 145 mM NaCl, 5 mM KCl, 2.5 mM CaCl2, 1 mM MgCl2, 10 mM Hepes, and 5.5 mM glucose (pH 7.35 with NaOH), while the intracellular (pipette) solution (ICS) contained 140 mM KF, 2 mM MgCl2, 1 mM CaCl2, 11 mM EGTA, and 10 mM Hepes (pH 7.22 with KOH). The osmolarity of the ECS and ICS were 302 mOsM.
Native peptides, phage-expressed peptides, and positive controls used for them were dissolved in ECS supplemented with 0.1 mg/ml bovine serum albumin (BSA; Sigma-Aldrich Hungary). Bath perfusion around the measured cell with different extracellular solutions was achieved using a gravity flow micro perfusion system using a rate of 0.5 ml/min. Excess fluid was removed continuously.
Voltage protocols: For measurement of Kv1.1 to 1.3 currents, voltage steps to +50 mV were applied from a holding potential of −120 mV and the peak current was measured every 15 s. For Kv1.3 currents, 15-ms-long depolarizing pulses were applied. For Kv1.1, 50-ms-long–activating stimuli were used. Kv1.2 currents were evoked by 200-ms-long pulses. […] The remaining current fraction at a given molar concentration was calculated as I/I0, where I0 is the peak current in the absence and I is the peak current at equilibrium block or […] after ∼2 min perfusion by the investigated peptide/phage.
Phage display test solutions were prepared according to routine phage display protocols ([62]). Phosphorylated and annealed oligonucleotides encoding the peptide construct were ligated into linearized pAS62 phagemid vector (https://patents.google.com/patent/WO2022144560A1/en) at a vector/insert ratio of 1:3. The final phagemid construct harbored a signal sequence followed by the peptide of interest, a linker sequence ([…]), and the C-terminal part of the P3 coat protein (amino acids: 216-424 of NP_510891.1). Chemically competent XL1-Blue E. coli cells (2022249, Agilent) were transformed with the ligation product and then streaked onto ampicillin (100 μg/ml) containing LB/Amp plates and incubated for 16 h at 37 °C.

[2] = test system: human Kv1.2; details: cited from earlier work; for IC50: human Kv1.2 channel blocking, patch-clamp, read-out: IC50, Kv1.x blocking (Kv1.2)
Experimental: Elution was done at 1 ml/min flow rate. Eluted peak fractions (1 ml) were analyzed by SDS-PAGE, then pooled and concentrated. The concentration of the purified protein was determined by measuring the UV absorbance at 280 nm using the protein extinction coefficient calculator in the ProtParam tool of Ex ...

Compound	estimated relative potency in phage-displayed form [1]	inhibition of Kv1.3 current in phage-displayed form, in words [1]	inhibition of Kv1.2, in words [2]	IC50 [2] [nM]	block of native Kv1.2, in words [2]
CC[C@H](C)[C@@H]1NC(=O)CNC(=O)[C@H](Cc2ccccc2)NC(=O)[C@H](CCC(N)=O)NC(=O)[C@H](C)NC(=O)[C@H](CCCCN)NC(=O)[C@@H]2CSSC[C@@H](C(=O)N[C@@H](Cc3ccc(O)cc3)C(=O)N3CCC[C@H]3C(=O)N[C@@H](Cc3c[nH]cn3)C(=O)O)NC(=O)[C@H](CCCCN)NC(=O)[C@@H]3CSSC[C@H](NC(=O)[C@H](CCC(N)=O)NC(=O)[C@H](CCCCN)NC(=O)[C@@H]4CCCN4C(=O)[C@H](CO)NC(=O)[C@H]([C@@H](C)O)NC(=O)[C@@H](NC(=O)[C@H](CCCCN)NC(=O)[C@@H](NC(=O)[C@H](CC(=O)O)NC(=O)[C@@H](NC(=O)[C@@H](NC(=O)[C@@H](N)[C@@H](C)O)C(C)C)[C@@H](C)CC)C(C)C)CSSC[C@H](NC(=O)[C@H](CCCCN)NC(=O)[C@H](C)NC(=O)CNC(=O)[C@H](C)NC(=O)[C@H](CCCNC(=N)N)NC1=O)C(=O)N[C@@H](CCSC)C(=O)N[C@@H](CC(N)=O)C(=O)NCC(=O)N[C@@H](CCCCN)C(=O)N3)C(=O)N[C@@H](CC(C)C)C(=O)N1CCC[C@H]1C(=O)N1CCC[C@H]1C(=O)N2 [HgTx1, Hongotoxin-1] (HELM PEPTIDE1{T.V.I.D.V.K.C.T.S.P.K.Q.C.L.P.P.C.K.A.Q.F.G.I.R.A.G.A.K.C.M.N.G.K.C.K.C.Y.P.H}$PEPTIDE1,PEPTIDE1,7:R3-29:R3|PEPTIDE1,PEPTIDE1,13:R3-34:R3|PEPTIDE1,PEPTIDE1,17:R3-36:R3$$$V2.0; N-terminus and C-terminus assumed)	1/30	significant inhibition	equivalent high potency		
CC[C@H](C)[C@H](NC(=O)[C@H](CCC(=O)O)NC(=O)[C@@H](NC(=O)CN)C(C)C)C(=O)N[C@@H](CC(N)=O)C(=O)N[C@H](C(=O)N[C@@H](CCCCN)C(=O)N[C@H]1CSSC[C@@H]2NC(=O)[C@H](CCCCN)NC(=O)CNC(=O)[C@H](Cc3ccccc3)NC(=O)[C@H](CCCNC(=N)N)NC(=O)[C@H](CCSC)NC(=O)CNC(=O)[C@H](C)NC(=O)[C@H](CC(=O)O)NC(=O)[C@H](CCCCN)NC(=O)[C@@H]3CSSC[C@@H](C(=O)N[C@H](C(=O)N4CCC[C@H]4C(=O)N[C@@H](CCCCN)C(=O)O)[C@@H](C)O)NC(=O)[C@H](Cc4c[nH]cn4)NC(=O)[C@H](CSSC[C@H](NC(=O)[C@H](CCC(N)=O)NC(=O)[C@@H]4CCCN4C(=O)[C@H](CO)NC(=O)CNC(=O)[C@H](CO)NC1=O)C(=O)N[C@@H](CC(C)C)C(=O)N[C@@H](CCCCN)C(=O)N1CCC[C@H]1C(=O)N3)NC(=O)[C@H](CCCCN)NC(=O)[C@H](CCCNC(=N)N)NC(=O)[C@H](CC(N)=O)NC(=O)[C@H](CCSC)NC2=O)C(C)C [KTX1, Kaliotoxin-1]	< 1/600	significant inhibition		> 1000	
CC[C@H](C)[C@@H]1NC(=O)[C@@H]2CSSC[C@H](NC(=O)[C@H](CO)NC(=O)[C@@H](N)C(C)C)C(=O)N[C@@H]([C@@H](C)O)C(=O)NCC(=O)N[C@@H](CO)C(=O)N[C@@H](CCCCN)C(=O)N[C@@H](CC(=O)O)C(=O)N[C@@H](CSSC[C@@H](C(=O)N[C@@H](CCCCN)C(=O)N[C@H]3CSSC[C@@H](C(N)=O)NC(=O)CNC(=O)[C@H](Cc4ccc(O)cc4)NC3=O)NC(=O)[C@H](CO)NC(=O)[C@H](CCCCN)NC(=O)[C@H](CC(N)=O)NC1=O)C(=O)N[C@@H](Cc1ccc(O)cc1)C(=O)N[C@@H](C)C(=O)N1CCC[C@H]1C(=O)N[C@H]1CSSC[C@H](NC(=O)CNC(=O)[C@H]([C@@H](C)O)NC(=O)[C@H](CCC(N)=O)NC(=O)[C@H](CCCCN)NC(=O)[C@H](CCCNC(=N)N)NC1=O)C(=O)N1CCC[C@H]1C(=O)N[C@@H](CC(N)=O)C(=O)N[C@@H](C)C(=O)N[C@@H](CCCCN)C(=O)N2 [MTX, Maurotoxin] (HELM PEPTIDE1{V.S.C.T.G.S.K.D.C.Y.A.P.C.R.K.Q.T.G.C.P.N.A.K.C.I.N.K.S.C.K.C.Y.G.C.[am]}$PEPTIDE1,PEPTIDE1,3:R3-24:R3|PEPTIDE1,PEPTIDE1,9:R3-29:R3|PEPTIDE1,PEPTIDE1,13:R3-19:R3|PEPTIDE1,PEPTIDE1,31:R3-34:R3$$$V2.0; N-terminus and C-terminus assumed)				0.8	potent blocker
CC[C@H](C)[C@@H]1NC(=O)[C@@H](NC(=O)[C@H](CO)NC(=O)[C@@H](N)CCCNC(=N)N)CSSC[C@@H](C(=O)O)NC(=O)[C@H]([C@@H](C)O)NC(=O)CNC(=O)[C@@H]2CSSC[C@@H]3NC(=O)[C@H](CCC(N)=O)NC(=O)[C@H](Cc4ccccc4)NC(=O)[C@H](C)NC(=O)[C@H]([C@@H](C)O)NC(=O)[C@H](CSSC[C@H](NC(=O)[C@H](Cc4ccccc4)NC(=O)[C@H](CO)NC(=O)[C@H](CC(C)C)NC(=O)[C@H](CCCNC(=N)N)NC(=O)[C@H](Cc4ccc(O)cc4)NC(=O)[C@H](CCCCN)NC(=O)[C@H](CCSC)NC(=O)[C@H](CO)NC(=O)[C@H](Cc4c[nH]cn4)NC(=O)[C@H](CCCCN)NC3=O)C(=O)N[C@@H](CCCNC(=N)N)C(=O)N[C@@H](CCCCN)C(=O)N[C@@H]([C@@H](C)O)C(=O)N2)NC(=O)[C@H](CCCNC(=N)N)NC(=O)[C@H](CO)NC(=O)[C@H](CCCCN)NC(=O)[C@@H]2CCCN2C(=O)[C@H]([C@@H](C)CC)NC(=O)[C@H]([C@@H](C)O)NC(=O)[C@H](CC(=O)O)NC1=O [ShK, Stichodactyla toxin]				9	
CC[C@H](C)[C@H](NC(=O)[C@H](C)NC(=O)[C@H](C)NC(=O)[C@H](C)N)C(=O)N[C@@H](CO)C(=O)N[C@H]1CSSC[C@@H]2NC(=O)[C@H](CCCCN)NC(=O)CNC(=O)[C@H](CC(N)=O)NC(=O)[C@H](CCCCN)NC(=O)[C@@H]3CSSC[C@@H](C(N)=O)NC(=O)[C@H](Cc4ccc(O)cc4)NC(=O)[C@H](Cc4ccc(O)cc4)NC(=O)[C@@H]4CSSC[C@H](NC(=O)[C@H](CCCCN)NC(=O)[C@@H]5CCCN5C(=O)[C@@H]5CCCN5C(=O)[C@H](CSSC[C@H](NC(=O)[C@H](CCCCN)NC(=O)[C@H](CCCNC(=N)N)NC(=O)[C@H](CC(N)=O)NC(=O)[C@H](CCSC)NC2=O)C(=O)N[C@@H](CCCCN)C(=O)N4)NC(=O)[C@H](CCC(=O)O)NC(=O)[C@@H]2CCCN2C(=O)[C@H](CO)NC(=O)CNC(=O)[C@H](C(C)C)NC1=O)C(=O)N[C@@H](CCCNC(=N)N)C(=O)N[C@@H](C)C(=O)N[C@@H](CCC(N)=O)C(=O)NCC(=O)N3 [Vm24, Vm24 toxin]	approximately 1	significant inhibition			
